We go through one compound from patent US20050245533A1, “Inhibitors of the 11-beta-hydroxysteroid dehydrogenaseType 1 enzyme and their therapeutic application” (priority 2004, published 2005).

One assay relates to male CD-1 mice. Put plainly: Mouse dehydrocorticosterone challenge model. The format is in vivo. Particulars: 100 mpk, followed by 11-DHC challenge, 30 min after challenge. As for the experimental part: Male CD-1 (18-22 g) mice (Charles River, Madison, Wis.) were group housed and allowed free access to food and water. Mice are brought into a quiet procedure room for acclimation the night before the study. Animals are dosed with vehicle or compound at various times (pretreatment period) before being challenged with 11-dehydrocorticosterone (Steraloids Inc., Newport, R.I.). Thirty minutes after challenge, the mice are euthanized with CO2 and blood samples (EDTA) are obtained by cardiac puncture and immediately placed on ice. Blood samples were then spun, the plasma was removed, and the samples frozen until further analysis was performed. Corticosterone levels were obtained by ELISA (American Laboratory Prod., Co., Windham, N.H.) or HPLC/mass spectroscopy.

Assay [1] has as its target T1, truncated human 11β-HSD-1 enzyme (24-287AA) (Homo sapiens, UniProt P28845).
T1 construct: truncated human 11β-HSD-1 enzyme (24-287AA); made in house; host or cells: E. coli (lysate)
Description: human 11β-HSD-1 enzymatic Scintillation Proximity Assay (SPA). The format is biochemical. The protocol:
The ability of test compounds to inhibit human 11-βHSD-1 enzymatic activity in vitro was evaluated in a Scintillation Proximity Assay (SPA). Tritiated-cortisone substrate, NADPH cofactor and titrated compound were incubated with truncated human 11β-HSD-1 enzyme (24-287AA) at room temperature to allow the conversion to cortisol to occur. The reaction was stopped by adding a non-specific 11β-HSD inhibitor, 18β-glycyrrhetinic acid. The tritiated cortisol generated was then captured by a mixture of an anti-cortisol monoclonal antibody and SPA beads coated with anti-mouse antibodies. The reaction plate was shaken at room temperature and the radioactivity bound to SPA beads was then measured on a β-scintillation counter. The 11-βHSD-1 assay was carried out in 96-well microtiter plates in a total volume of 220 μl. To start the assay, 188 μl of master mix which contains 17.5 nM ^3H-cortisone, 157.5 nM cortisone, and […] NADPH was added to the wells. In order to drive the reaction in the forward direction, 1 mM G-6-P was also added. […] After shaking for 30 minutes, plates were read on a liquid scintillation counter Topcount. Percent inhibition was calculated based on the background and the maximal signal. […] Percent of inhibition of each compound was calculated relative to the maximal signal and IC50 curves were generated. […]
(SPA uses beads or plates that emit light when radiolabelled molecules are held near them.)

In the next assay the target is T2, human 11-β-HSD-2 (Homo sapiens, UniProt P80365).
T2 sequence (P80365 1-405): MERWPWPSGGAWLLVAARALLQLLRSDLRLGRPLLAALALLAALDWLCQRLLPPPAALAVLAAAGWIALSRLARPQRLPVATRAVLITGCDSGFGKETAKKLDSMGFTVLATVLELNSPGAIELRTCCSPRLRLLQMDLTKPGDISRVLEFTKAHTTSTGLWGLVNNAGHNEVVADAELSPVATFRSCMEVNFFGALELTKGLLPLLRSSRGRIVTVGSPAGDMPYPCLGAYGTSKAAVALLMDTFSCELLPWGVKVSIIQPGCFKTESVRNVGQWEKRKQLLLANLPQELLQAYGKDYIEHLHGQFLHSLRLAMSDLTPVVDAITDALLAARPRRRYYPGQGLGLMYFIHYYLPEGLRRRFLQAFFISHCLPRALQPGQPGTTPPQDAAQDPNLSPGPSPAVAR
Description: 11β-HSD-2 Scintillation Proximity Assay (tritiated cortisol, NAD+). The format is biochemical. Particulars: human enzyme, SPA.

The next assay has as its system ob/ob mice. Description: ob/ob mouse model of type 2 diabetes. The format is in vivo. The note with it: three weeks. As for the experimental part:
Male B6.VLep^ob(−/−) (ob/ob) mice and their lean littermates (Jackson Laboratory, Bar Harbor, Me.) were group housed and allowed free access to food (Purina 5015) and water. Mice were 6-7 weeks old at the start of each study. On day 0, animals were weighed and postprandial glucose levels determined (Medisense Precision-X™ glucometer, Abbott Laboratories). […] Animals were weighed, and postprandial glucose measurements were taken weekly throughout the study. On the last day of the study, 16 hours post dose (unless otherwise noted) the mice were euthanized via CO2, and blood samples (EDTA) were taken by cardiac puncture and immediately placed on ice. Whole blood measurements for HbA1c were taken with hand held meters (A1c NOW, Metrika Inc., Sunnyvale Calif.). Blood samples were then spun and plasma was removed and frozen until further analysis. The plasma triglyceride levels were determined according to instructions by the manufacturer (Infinity kit, Sigma Diagnostics, St. Louis Mo.).

T1 sequence (P28845 24-287): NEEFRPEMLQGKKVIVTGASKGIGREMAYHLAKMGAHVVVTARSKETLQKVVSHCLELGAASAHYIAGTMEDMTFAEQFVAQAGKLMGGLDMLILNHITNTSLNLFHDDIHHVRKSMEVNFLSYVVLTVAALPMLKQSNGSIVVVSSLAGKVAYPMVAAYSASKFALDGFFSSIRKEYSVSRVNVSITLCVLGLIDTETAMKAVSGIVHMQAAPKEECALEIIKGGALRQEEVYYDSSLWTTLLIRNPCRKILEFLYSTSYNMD

As for `CC(C(=O)NC1C2CC3CC(C2)CC1C3)N1CCC(O)CC1` (stereo not shown) [Compound C, N-2-Adamantyl-2-(4-hydroxypiperidin-1-yl)propanamide], the Plasma corticosterone level in the assay on male CD-1 mice (pretreatment period 0.5 hours) was 203 ± 19; with male CD-1 mice (pretreatment period 5 hours), 382 ± 40. The IC50 (as a rule, the concentration that inhibits the measured activity by half) was 34 nM in assay [1] and > 10000 nM at human 11-β-HSD-2. Moreover, the figures for the “% HbA1c” value in the assay with ob/ob mice (30 mpk twice daily) and with ob/ob mice (100 mpk twice daily) were 7.4 ± 0.7% and 5.7 ± 0.3%, respectively. Besides, the Plasma glucose in the assay with ob/ob mice (30 mpk twice daily) is given as 227 ± 17 mg/dL; in the assay on ob/ob mice (100 mpk twice daily), 186 ± 18 mg/dL. In addition, the Plasma triglycerides is 288 ± 26 mg/dL with ob/ob mice (30 mpk twice daily) and 323 ± 34 mg/dL in the assay on ob/ob mice (100 mpk twice daily).
